MIC and pest or weed control data for eight compounds are collected here from US8796001B2, “Metalloenzyme inhibitor compounds” (Viamet Pharmaceuticals, Inc., priority 2011, dated 2014).

Experiment [1] concerns Septoria tritici (ATCC 26517). Briefly: Minimum Inhibitory Concentration (MIC) vs. Septoria tritici. Format: cell-based. The settings on record: Zymoseptoria tritici, ATCC26517, 168 h; S. tritici ATCC 26517; 50% growth reduction; 7 days at 22 °C; read-out: Septoria Rating (MIC). The procedure:
C. Minimum Inhibitory Concentration (MIC) vs. Septoria Tritici Compounds were assessed for their ability to inhibit the growth of a common strain of the fungal plant pathogen Septoria tritici (ATCC 26517) using a procedure based on a Clinical and Laboratory Standards Institute (CLSI) microdilution assay protocol for filamentous fungi. Stock solutions of the test compounds and standards were prepared in DMSO at 6400 μg/mL. Each stock solution was used to prepare a 2-fold dilution series ranging from 16 to 0.016 μg/mL (total of 11 compound concentrations) in RPMI-1640 (Roswell Park Memorial Institute) medium containing 3-(N-morpholino)propanesulfonic acid (MOPS) buffer and 2% DMSO. A 100 μL aliquot of the dilutions was added to columns 1 (16 μg/mL compound) through 11 (0.016 μg/mL compound) of a 96-well microtiter plate. This format was replicated in a second row of the microtiter plate. Thus, each microtiter plate could include 11 concentrations of four test or control compounds replicated twice. A 100 μL aliquot of RPMI-1640/MOPS/2% DMSO medium was added to column 12 (no compound control) of the microtiter plate. A fresh culture of S. tritici was used to prepare a solution of approximately 5×10^4 colony-forming units per milliliter (cfu/mL) in RPMI/MOPS medium without DMSO. A 100 μL aliquot of this solution was added to all 96 wells in the microtiter plate. […]

In experiment [2] the test system is Puccinia recondita tritici = Puccinia triticina (PUCCRT). Briefly: Fungicidal activity vs. leaf rust on wheat plants. Format: in vivo. The conditions noted are these: wheat (Yuma) sprayed at 50 ppm, inoculated the following day, rated 7-9 days later, read-out: Puccinia Rating (% Disease Control @ 50 ppm). The procedure, abridged:
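Wheat seedlings sprayed to wet with compound at 50 ppm in 10% acetone/90% Triton X100 water (~1500 L/ha), then inoculated next day with P. triticina spores and held humid overnight.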

One may read the MIC as the lowest concentration that inhibits growth of the organism. `OC(Cn1cnnn1)(c1ccc(F)cc1F)C(F)(F)c1ccc(OCc2ccccc2)cn1` (stereo not drawn) [Compound 30, 1-(5-(Benzyloxy)pyridin-2-yl)-2-(2,4-difluorophenyl)-1,1-difluoro-3-(1H-tetrazol-1-yl)propan-2-ol]: the MIC in experiment [1] is at most 0.5 µg/mL. Moreover, in experiment [2], the pest or weed control at 50 ppm was 80 to 100%.
Consider `CC#CCOc1ccc(C(F)(F)C(O)(Cn2cnnn2)c2ccc(F)cc2F)nc1` (stereo not drawn) [Compound 32, 1-(5-(But-2-yn-1-yloxy)pyridin-2-yl)-2-(2,4-difluorophenyl)-1,1-difluoro-3-(1H-tetrazol-1-yl)propan-2-ol], for which the MIC in experiment [1] is at most 0.5 µg/mL.
On to `OC(Cn1cnnn1)(c1ccc(F)cc1F)C(F)(F)c1ccc(OCC(F)(F)c2ccccc2)cn1` (stereo not drawn) [Compound 119, 1-(5-(2,2-difluoro-2-phenylethoxy)pyridin-2-yl)-2-(2,4-difluorophenyl)-1,1-difluoro-3-(1H-tetrazol-1-yl)propan-2-ol], for which, in experiment [2], the pest or weed control at 50 ppm lay within 80 to 100%.
On to `OC(Cn1cnnn1)(c1ccc(F)cc1F)C(F)(F)c1ccc(OCC(F)(F)c2ccc(OC(F)F)cc2)cn1` (stereo not drawn) [Compound 120, 1-(5-(2-(4-(difluoromethoxy)phenyl)-2,2-difluoroethoxy)pyridin-2-yl)-2-(2,4-difluorophenyl)-1,1-difluoro-3-(1H-tetrazol-1-yl)propan-2-ol], for which the pest or weed control at 50 ppm in experiment [2] is 80 to 100%.
Consider `N#Cc1ccc(C(F)(F)COc2ccc(C(F)(F)C(O)(Cn3cnnn3)c3ccc(F)cc3F)nc2)cc1` (stereo not drawn) [Compound 121, 4-(2-((6-(2-(2,4-difluorophenyl)-1,1-difluoro-2-hydroxy-3-(1H-tetrazol-1-yl)propyl)pyridin-3-yl)oxy)-1,1-difluoroethyl)benzonitrile], for which the pest or weed control at 50 ppm in experiment [2] was 80 to 100%.
For the compound `OC(Cn1cnnn1)(c1ccc(F)cc1F)C(F)(F)c1ccc(OCC(F)(F)c2ccc(Cl)cc2)cn1` (stereo not drawn) [Compound 122, 1-(5-(2-(4-chlorophenyl)-2,2-difluoroethoxy)pyridin-2-yl)-2-(2,4-difluorophenyl)-1,1-difluoro-3-(1H-tetrazol-1-yl)propan-2-ol], the pest or weed control at 50 ppm in experiment [2] fell in the range of 80 to 100%.
Consider `OC(Cn1cnnn1)(c1ccc(F)cc1F)C(F)(F)c1ccc(OCC(F)c2ccccc2)cn1` (stereo not drawn) [Compound 123, 2-(2,4-difluorophenyl)-1,1-difluoro-1-(5-(2-fluoro-2-phenylethoxy)pyridin-2-yl)-3-(1H-tetrazol-1-yl)propan-2-ol], for which the pest or weed control at 50 ppm in experiment [2] was in the range of 80 to 100%.
Still for that read-out and setting: the figure for `OC(Cn1cnnn1)(c1ccc(F)cc1F)C(F)(F)c1ccc(OCC(F)c2ccc(OC(F)F)cc2)cn1` (stereo not drawn) [Compound 124, 1-(5-(2-(4-(difluoromethoxy)phenyl)-2-fluoroethoxy)pyridin-2-yl)-2-(2,4-difluorophenyl)-1,1-difluoro-3-(1H-tetrazol-1-yl)propan-2-ol] is 80 to 100%.
